Experimental data from ChEMBL document CHEMBL3817770, “Design and synthesis of 5-aminolaevulinic acid/3-hydroxypyridinone conjugates for photodynamic therapy: enhancement of protoporphyrin IX production and photo-toxicity in tumor cells” (Medchemcomm, 2016).
Calls of active or inactive are those of the source. The rule behind the calls is not given here.

Assays:
LNCaP [1] = test: Increase in protoporphyrin 9 levels in human LNCAP cells at 200 uM after 3 to 24 hrs by fluorescence spectrometer plate reader method; format: functional, cell-based
KB [2] = test: Increase in protoporphyrin 9 levels in human KB cells at 100 uM after 24 hrs by fluorescence spectrometer plate reader method relative to ALA; format: functional
[3] = Increase in protoporphyrin 9 levels in human BPH1 cells at 100 uM after 24 hrs by fluorescence spectrometer plate reader method relative to ALA; format: ADME, cell-based; conditions: bph-1, 24 h
A549 [4] = test: Phototoxicity in human A549 cells assessed as cell survival at 200 uM incubated for 4 hrs followed by irradiation with blue light for 5 mins by MTT assay; format: functional
KB [5] = test: Phototoxicity in human KB cells assessed as cell survival at 200 uM incubated for 4 hrs followed by irradiation with blue light for 5 mins by MTT assay; format: functional
[6] = Dark toxicity in human BPH1 cells at 200 uM after 4 hrs by MTT assay; format: cell-based; conditions: bph-1, 4 h
LNCaP [7] = test: Increase in protoporphyrin 9 levels in human LNCAP cells at 100 uM after 24 hrs by fluorescence spectrometer plate reader method relative to ALA; format: functional
LNCaP [8] = test: Phototoxicity in human LNCAP cells assessed as cell survival at 200 uM incubated for 4 hrs followed by irradiation with blue light for 5 mins by MTT assay; format: functional
A549 [9] = test: Dark toxicity in human A549 cells at 200 uM after 4 hrs by MTT assay; format: cell-based; conditions: a549, 4 h
KB [10] = test: Increase in protoporphyrin 9 levels in human KB cells at 200 uM after 3 to 24 hrs by fluorescence spectrometer plate reader method; format: functional, cell-based
MCF7 [11] = test: Phototoxicity in human MCF7 cells assessed as cell survival at 100 uM incubated for 4 hrs followed by irradiation with blue light for 5 mins by MTT assay; format: functional
LNCaP [12] = test: Dark toxicity in human LNCAP cells at 200 uM after 4 hrs by MTT assay; format: cell-based
MCF7 [13] = test: Dark toxicity in human MCF7 cells at 200 uM after 4 hrs by MTT assay; format: cell-based; conditions: mcf7, 4 h
A549 [14] = test: Increase in protoporphyrin 9 levels in human A549 cells at 200 uM after 3 to 24 hrs by fluorescence spectrometer plate reader method; format: functional, cell-based
LNCaP [15] = test: Phototoxicity in human LNCAP cells assessed as cell survival at 100 uM incubated for 4 hrs followed by irradiation with blue light for 5 mins by MTT assay; format: functional
A549 [16] = test: Phototoxicity in human A549 cells assessed as cell survival at 100 uM incubated for 4 hrs followed by irradiation with blue light for 5 mins by MTT assay; format: functional
A549 [17] = test: Increase in protoporphyrin 9 levels in human A549 cells at 100 uM after 24 hrs by fluorescence spectrometer plate reader method relative to ALA; format: functional
[18] = Phototoxicity in human BPH1 cells assessed as cell survival at 200 uM incubated for 4 hrs followed by irradiation with blue light for 5 mins by MTT assay; format: cell-based, BPH-1; conditions: bph-1, 4 h, 200 µM
[19] = Increase in protoporphyrin 9 levels in human BPH1 cells at 200 uM after 3 to 24 hrs by fluorescence spectrometer plate reader method; format: ADME, cell-based; conditions: bph-1, 200 µM

Row | SMILES | Activity (LNCaP [1]) | Activity (KB [2]) | Activity [3] | Activity (A549 [4]) | Activity (KB [5]) | Activity [6] | Activity (LNCaP [7]) | Activity (LNCaP [8]) | Activity (A549 [9]) | Activity (KB [10]) | Activity (MCF7 [11]) | Activity (LNCaP [12]) | Activity (MCF7 [13]) | Activity (A549 [14]) | Activity (LNCaP [15]) | Activity (A549 [16]) | Activity (A549 [17]) | Activity [18] | Activity [19]
1 | CCCCCCn1ccc(=O)c(O)c1C(=O)N[C@@H](CC(C)C)C(=O)NCC(=O)CCC(=O)OC | inactive | inactive | Non-toxic | inactive | inactive | Non-toxic | inactive | inactive | Non-toxic | inactive | inactive | Non-toxic | Non-toxic | inactive | inactive | inactive | inactive | Non-toxic | Non-toxic
2 | CCCCn1ccc(=O)c(O)c1C(=O)N[C@@H](CC(C)C)C(=O)NCC(=O)CCC(=O)OC | inactive | inactive | Non-toxic | inactive | inactive | Non-toxic | inactive | inactive | Non-toxic | inactive | inactive | Non-toxic | Non-toxic | inactive | inactive | inactive | inactive | Non-toxic | Non-toxic
3 | COC(=O)CCC(=O)CNC(=O)[C@H](CC(C)C)NC(=O)c1c(O)c(=O)ccn1C | inactive | inactive | Non-toxic | inactive | inactive | Non-toxic | inactive | inactive | Non-toxic | inactive | inactive | Non-toxic | Non-toxic | inactive | inactive | inactive | inactive | Non-toxic | Non-toxic
4 | CCn1ccc(=O)c(O)c1C(=O)N[C@@H](Cc1ccccc1)C(=O)NCC(=O)CCC(=O)OC | inactive | inactive | Non-toxic | inactive | inactive | Non-toxic | inactive | inactive | Non-toxic | inactive | inactive | Non-toxic | Non-toxic | inactive | inactive | inactive | inactive | Non-toxic | Non-toxic
